Measured values taken from patent publication EP4001279A1, “NOVEL SPIROPYRROLIDINE DERIVED ANTIVIRAL AGENTS” (Enanta Pharmaceuticals, Inc., priority 2020, dated 2022).
Like-named read-outs stand apart in the source and are kept apart here.

Experiments:
[1] = system: 229E human corona virus (hCoV); test: 229E live virus assay (CPE, ATPlite readout in MRC-5 cells); type: cell-based, hCoV-229E; conditions: MOI 0.05, ATPlite readout, run in duplicate
SARS-CoV-2 3CL-protease = SARS-CoV-2 3CL-protease (Severe acute respiratory syndrome coronavirus 2, UniProt P0DTD1); test: SARS-CoV-2 3C-like (3CL) protease fluorescence assay (FRET); type: biochemical; conditions: read-out: FRET IC50
[2] = Human coronavirus 229E, MRC5, hCoV-229E live virus
[3] = SARS-CoV-2 3CL-protease 10 nM, 30 min preincubation at RT, substrate 40 µM, test compounds 0 - 10 µM, duplicate

## COc1cccc2[nH]c(C(=O)N[C@@H](COC(C)(C)C)C(=O)N3C[C@]4(C[C@H]3C#N)C(=O)Nc3ccccc34)cc12 [Example 124]
[1]; [2]
  EC50: < 0.1 µM
SARS-CoV-2 3CL-protease
  IC50: < 0.1 µM

## CC(C)(C)OC[C@H](NC(=O)c1cc2c(F)cc(F)cc2[nH]1)C(=O)N1C[C@]2(C[C@H]1C#N)C(=O)Nc1ccccc12 [Example 125]
[1]; [2]
  EC50: 0.1 to 1 µM
SARS-CoV-2 3CL-protease
  IC50: < 0.1 µM

## CC(C)(C)CC(NC(=O)c1cnn(-c2ccc(F)cc2)c1)C(=O)N1CC2(CC1C#N)C(=O)Nc1ccccc12 (centres unmarked) [Example 146]
[1]; [2]
  EC50: < 0.1 µM
SARS-CoV-2 3CL-protease
  IC50: < 0.1 µM

## CC(C)C[C@H](NC(=O)c1cc2c(F)cc(F)c(F)c2[nH]1)C(=O)N1C[C@]2(C[C@H]1C#N)C(=O)Nc1ccccc12 [Example 152]
SARS-CoV-2 3CL-protease; [3]
  IC50: < 0.1 µM

## CC(C)C[C@@H](C(=O)N1C[C@]2(C[C@H]1C(=O)C(=O)NC1CCCCC1)C(=O)Nc1ccccc12)N(C)C(=O)c1cc2c(F)cc(F)c(F)c2[nH]1 [Example 156]
[1]; [2]
  EC50: > 1 µM
SARS-CoV-2 3CL-protease
  IC50: > 1 µM

## CC(C)C[C@@H](C(=O)N1C[C@]2(C[C@H]1C#N)C(=O)Nc1ccccc12)N(C)C(=O)c1ccccc1OC(F)F [Example 176]
[1]; [2]
  EC50: < 0.1 µM
SARS-CoV-2 3CL-protease
  IC50: < 0.1 µM

## CC(C)C[C@@H](C(=O)N1C[C@]2(C[C@H]1C#N)C(=O)Nc1ccccc12)N(C)C(=O)c1cc2cc(Br)ccc2cn1 [Example 230]
[1]; [2]
  EC50: < 0.1 µM
SARS-CoV-2 3CL-protease
  IC50: 0.1 to 1 µM

## COc1cc(C(=O)N(C)[C@@H](CC(C)C)C(=O)N2C[C@]3(C[C@H]2C#N)C(=O)Nc2ccccc23)cn2cc(C(F)F)nc12 [Example 255]
[1]; [2]
  EC50: < 0.1 µM
SARS-CoV-2 3CL-protease
  IC50: < 0.1 µM

## CC(C)C[C@@H](C(=O)N1C[C@]2(C[C@H]1C#N)C(=O)Nc1ccccc12)N(C)C(=O)[C@@H]1C[C@H]1c1ccccc1 [Example 280]
[1]; [2]
  EC50: < 0.1 µM
SARS-CoV-2 3CL-protease
  IC50: < 0.1 µM

## CC(C)CC(C(=O)N1CC2(CC1C#N)C(=O)Nc1ccccc12)N(C)C(=O)C1CC1c1ccccc1 (centres unmarked) [Example 281]
[1]; hCoV-229E live virus
  EC50: < 0.1 µM
SARS-CoV-2 3CL-protease
  IC50: < 0.1 µM

## CC(C)CC(C(=O)N1CC2(CC1C#N)C(=O)Nc1ccccc12)N(C)C(=O)c1nnn(-c2ccccc2)n1 (centres unmarked) [Example 287]
[1]; [2]
  EC50: < 0.1 µM
SARS-CoV-2 3CL-protease
  IC50: < 0.1 µM

## CC(C)CC(C(=O)N1CC2(CC1C#N)C(=O)Nc1ccccc12)N(C)C(=O)c1nccc2ccccc12 (centres unmarked) [Example 300]
SARS-CoV-2 3CL-protease; [3]
  IC50: 0.1 to 1 µM

## CC(C)CC(C(=O)N1CC2(CC1C#N)C(=O)Nc1ccccc12)N(C)C(=O)c1cc(OC2CC2)c2nn(C3CC3)cc2c1 (centres unmarked) [Example 307]
[1]; [2]
  EC50: 0.1 to 1 µM
SARS-CoV-2 3CL-protease
  IC50: 0.1 to 1 µM

## COc1cc(C(=O)N(C)C(CC(C)C)C(=O)N2CC3(CC2C#N)C(=O)Nc2ccccc23)cc2cn(C3CC3)nc12 (centres unmarked) [Example 308]
[1]; [2]
  EC50: 0.1 to 1 µM
SARS-CoV-2 3CL-protease
  IC50: < 0.1 µM

## CC(C)CC(C(=O)N1CC2(CC1C#N)C(=O)Nc1ccccc12)N(C)C(=O)c1cnc2ccc(F)cc2c1 (centres unmarked) [Example 337]
SARS-CoV-2 3CL-protease; [3]
  IC50: < 0.1 µM

## CC(C)C[C@@H](C(=O)N1C[C@]2(C[C@H]1C#N)C(=O)Nc1ccccc12)N(C)C(=O)[C@H]1CCN(C(=O)C(F)(F)F)C1 [Example 346]
[1]; [2]
  EC50: < 0.1 µM
SARS-CoV-2 3CL-protease
  IC50: < 0.1 µM

## CC(C)CC(C(=O)N1CC2(CC1C#N)C(=O)Nc1ccccc12)N(C)C(=O)C1CCN(C(=O)C(F)(F)F)C1 (centres unmarked) [Example 347]
[1]; hCoV-229E live virus
  EC50: < 0.1 µM
SARS-CoV-2 3CL-protease
  IC50: < 0.1 µM

## COC[C@@H](C(=O)N1C[C@]2(C[C@H]1C#N)C(=O)Nc1ccccc12)N(C)C(=O)c1cc2c(F)cc(F)cc2[nH]1 [Example 369]
SARS-CoV-2 3CL-protease; [3]
  IC50: < 0.1 µM

## CN(C(=O)c1cc2c(F)cc(F)cc2[nH]1)[C@@H](Cc1ccc(O)cc1)C(=O)N1C[C@]2(C[C@H]1C#N)C(=O)Nc1ccccc12 [Example 388]
SARS-CoV-2 3CL-protease; [3]
  IC50: < 0.1 µM

## [2H]C([2H])([2H])N(C(=O)c1cnn(CC(F)(F)F)c1)[C@@H](CCCC)C(=O)N1C[C@]2(C[C@H]1C#N)C(=O)Nc1ccccc12 [Example 394]
SARS-CoV-2 3CL-protease; [3]
  IC50: < 0.1 µM

## CN(C(=O)c1cnn(C(C)(C)C)c1)[C@@H](CC1CC1)C(=O)N1C[C@]2(C[C@H]1C#N)C(=O)Nc1ccccc12 [Example 404]
SARS-CoV-2 3CL-protease; [3]
  IC50: < 0.1 µM

## CN(C(=O)[C@@H](O)C(C)(C)C)[C@@H](CC1CC1)C(=O)N1C[C@]2(C[C@H]1C#N)C(=O)Nc1ccccc12 [Example 416]
[1]; [2]
  EC50: < 0.1 µM
SARS-CoV-2 3CL-protease
  IC50: < 0.1 µM

## [2H]C([2H])([2H])N(C(=O)C(O)c1ccc(F)cc1)C(CCCC)C(=O)N1CC2(CC1C#N)C(=O)Nc1ccccc12 (centres unmarked) [Example 420]
SARS-CoV-2 3CL-protease; [3]
  IC50: < 0.1 µM

## [2H]C([2H])([2H])N(C(=O)C(O)c1ccc(F)cc1)C(CCCC)C(=O)N1CC2(CC1C#N)C(=O)Nc1ccccc12 (centres unmarked) [Example 421]
SARS-CoV-2 3CL-protease; [3]
  IC50: < 0.1 µM

## C[C@H](OC(=O)N[C@@H](CC(C)(C)C)C(=O)N1C[C@]2(C[C@H]1C#N)C(=O)Nc1ccc(Cl)cc12)c1ccc(F)cc1 [Example 494]
[1]; [2]
  EC50: 0.1 to 1 µM
SARS-CoV-2 3CL-protease
  IC50: < 0.1 µM

## COC(=O)c1ccc2c(c1)[C@@]1(C[C@@H](C#N)N(C(=O)[C@H](CC(C)C)N(C)C(=O)c3cc4c(F)cc(F)cc4[nH]3)C1)C(=O)N2 [Example 501, methyl (3R,5'S)-5'-cyano-1'-(N-(4,6-difluoro-1H-indole-2-carbonyl)-N-methyl-L-leucyl)-2-oxospiro[indoline-3,3'-pyrrolidine]-5-carboxylate]
[1]; [2]
  EC50: < 0.1 µM

## CC(C)C[C@@H](C(=O)N1C[C@]2(C[C@H]1C#N)C(=O)Nc1ccc(C(=O)N3CCOCC3)cc12)N(C)C(=O)c1cc2c(F)cc(F)cc2[nH]1 [Example 502, N-((S)-1-((3R,5'S)-5'-cyano-5-(morpholine-4-carbonyl)-2-oxospiro[indoline-3,3'-pyrrolidin]-1'-yl)-4-methyl-1-oxopentan-2-yl)-4,6-difluoro-N-methyl-1H-indole-2-carboxamide]
[1]; [2]
  EC50: < 0.1 µM

## CC(C)C[C@@H](C(=O)N1C[C@]2(C[C@H]1C#N)C(=O)Nc1ccc(N=[N+]=[N-])cc12)N(C)C(=O)c1cc2c(F)cc(F)cc2[nH]1 [Example 503, N-((S)-1-((3R,5'S)-5-azido-5'-cyano-2-oxospiro[indoline-3,3'-pyrrolidin]-1'-yl)-4-methyl-1-oxopentan-2-yl)-4,6-difluoro-N-methyl-1H-indole-2-carboxamide]
[1]; [2]
  EC50: < 0.1 µM

## CC(C)C[C@@H](C(=O)N1C[C@]2(C[C@H]1C#N)C(=O)Nc1ccc(NC(=O)C3(F)CC3)cc12)N(C)C(=O)c1cc2c(F)cc(F)cc2[nH]1 [Example 504, N-((S)-1-((3R,5'S)-5'-cyano-5-(1-fluorocyclopropane-1-carboxamido)-2-oxospiro[indoline-3,3'-pyrrolidin]-1'-yl)-4-methyl-1-oxopentan-2-yl)-4,6-difluoro-N-methyl-1H-indole-2-carboxamide]
[1]; [2]
  EC50: < 0.1 µM

## CC(C)C[C@@H](C(=O)N1C[C@]2(C[C@H]1C#N)C(=O)Nc1ccc(-n3cc(C4CC4)nn3)cc12)N(C)C(=O)c1cc2c(F)cc(F)cc2[nH]1 [Example 505, N-((S)-1-((3R,5'S)-5'-cyano-5-(4-cyclopropyl-1H-1,2,3-triazol-1-yl)-2-oxospiro[indoline-3,3'-pyrrolidin]-1'-yl)-4-methyl-1-oxopentan-2-yl)-4,6-difluoro-N-methyl-1H-indole-2-carboxamide]
[1]; [2]
  EC50: < 0.1 µM

## C[C@@H](OC(=O)N[C@@H](CC(C)(C)C)C(=O)N1C[C@]2(C[C@H]1C#N)C(=O)Nc1ccc(F)cc12)c1ccc(F)cc1 [Example 523]
SARS-CoV-2 3CL-protease; [3]
  IC50: < 0.1 µM
